Test results taken from ChEMBL document CHEMBL5223118, “Magnet for the Needle in Haystack: "Crystal Structure First" Fragment Hits Unlock Active Chemical Matter Using Targeted Exploration of Vast Chemical Spaces” (J Med Chem, 2022).

The compounds below were run against cAMP-dependent protein kinase (PKA) (Homo sapiens, UniProt P22694+P17612+P22612) (assay: Inhibition of PKA (unknown origin)).
Type: protein assay
N#Cc1cc(-c2cccc(C3CNCCO3)c2)ccc1N (stereo unspecified) gave a Ki of 2101 µM. Compound N#Cc1cc(-c2cccc(C3COCCN3)c2)ccc1N (stereo unspecified) has a Ki of 955 µM. In the case of N#Cc1c(N)ccnc1C=C1CCNCC1, the Ki is reported as 6379 µM. For NC1CCN(Cc2cccc(-c3ccc4c(O)nccc4c3)c2)C1 (racemic), the Ki was 0.744 µM. Work on CC1(CS(=O)(=O)N2CCc3c(sc(N)c3C#N)C2)CC1(F)F (stereo unspecified) yielded a Ki of 4743 µM. For N#Cc1c(N)ccc(/C=C2/CCCNC2)c1Cl, the Ki was 85 µM. Work on NC1C=C(C(F)(F)F)C=NC1=O (stereo unspecified) yielded a Ki of 10000 µM. N#Cc1c(N2CCCC2)n[nH]c1N was tested, and the Ki was 5000 µM. Cc1cc(C(=O)Nc2ccncc2)c(C)o1 showed a Ki of 20000 µM. Work on NCCC1CN(C(=O)c2ccc(C(N)=O)cc2)c2ccccc21 (stereo unspecified) yielded a Ki of 5000 µM. N#Cc1cc(-c2cccc(C3(CN)CCOCC3)c2)ccc1N gave a Ki of 390.2 µM. Compound COc1cc(NCCNc2ccnc(N)c2C#N)cc(OC)c1 has a Ki of 588 µM. N#Cc1cc(-c2cccc(CC(N)CC3CC3)c2)ccc1N (stereo unspecified) showed a Ki of 540 µM. N[C@H]1CCN(Cc2cccc(-c3ccc4c(O)nccc4c3)c2)C1 gave a Ki of 0.74 µM. In the case of O=c1[nH]ccc2cc(-c3cccc(Cn4cccn4)c3)ccc12, the Ki is reported as 154.7 µM. N[C@@H]1CCN(Cc2cccc(-c3ccc4c(O)nccc4c3)c2)C1 showed a Ki of 3 µM. Compound COCC1CCC(NC(=O)c2ccc3c(c2)CCNC3=O)CC1 (stereo unspecified) has a Ki of 6219 µM. For CCn1cc(-c2csc3c(=O)[nH]ccc23)cn1, the Ki was 1423 µM. Compound COCC1CN=C(N2CCN(c3ccncc3Cl)CC2)N1.I (stereo unspecified) has a Ki of 139.3 µM. Compound CN(C)Cc1ccc(F)c(-c2ccc3c(C#N)c(N)[nH]c3c2)c1 has a Ki of 174.4 µM. COC1(CNC(=O)N2CCN(c3ccncc3C)CC2)CCCS(=O)(=O)C1 (stereo unspecified) was tested, and the Ki was 354.3 µM.
